Entries after “also recorded” stand apart in the source; their conditions may differ. Where a SMILES comes first, the peptide text is derived from it. [ ]: non-standard residue; d: D form. The star is where a group is joined. X1 = COc1cc2cc(c1Cl)N(C)C(=O)C[C@H](OC(=O)[C@H](C)N(C)C(=O)CCS*)[C@]1(C)O[C@H]1[C@H](C)[C@@H]1C[C@@](O)(NC(=O)O1)[C@H](OC)/C=C/C=C(\C)C2; βAla = NCCC(=O)O; Mpa = O=C(O)CCS
Experiments:
UMUC-3 = experiment: Cell viability and cytotoxicity assay; type: cell-based, human; settings: 72 h
Protocol: (§1) Cell viability and cytotoxicity assay—Cancer cells (3×10^3/well) were seeded on a flat bottom 96-well plate overnight. […] CellTiter Glo reagent (Promega, Madison, WI) was added in each well (50 μL). The luminescence generated was recorded using a microplate reader (Tecan US Inc., Morrisville, NC). The dose response curves were plotted, and the half maximal inhibitory concentrations (IC50 values) were calculated using Graph Pad Prism 6.0 software.

[1] = tested on: orthotopic human UMUC-3 tumors; experiment: Therapeutic efficacy for treating BC, orthotopic UMUC-3/GFP-Luc xenograft; settings: for anti-tumor activity of i.v. DM1-Bdd versus i.v. DM1: bioluminescence imaging during 3 once-per-week treatments; for animal survival compared to i.t. MIT / survival after 100 days / tumor growth inhibition compared to i.t. MIT: 0.75 mg/kg weekly for 3 weeks
Description: These animals were immediately euthanized I week after the completion of the treatment schedule.
(§2) Slides were then counterstained with Hematoxylin.

[2] = tested on: kidney injury molecule-1 (KIM-1) and neutrophil gelatinase-associated lipocalin (NGAL); experiment: Nephrotoxicity studies, urinary renal injury biomarkers by ELISA; type: in vivo, BALB/c mice; settings: single i.v. dose
Protocol: (§3) The level of the acute renal injury biomarkers, neutrophil gelatinase-associated lipocalin (NGAL) and kidney injury molecule-1 (KIM-1) in the urine samples, were measured using ELISA assays according to the manufacturer's instructions (R&D Systems, Minneapolis, MN). […] All the animals (n=3/group) were euthanized at the end of the treatment and the kidneys were collected and fixed in 10% neutral buffered formalin. The tissues were then processed, embedded in paraffin, sectioned, and stained with H&E. Immunohistochemistry (IHC) for kidney injury (NGAL and KIM-I) was also performed.

Serum biochemistry = type: in vivo, female BALB/c mice; settings: i.v. weekly for 3 weeks, CIS 10 mg/kg; for hepatotoxicity: release of ALP, ALT, and AST / urea nitrogen/creatinine ratio: DM1/DM1-Bdd 0.75 mg/kg
Description: (§4) At the end of a 3-week treatment, mice were euthanized. The organs/tissues were harvested, fixed in 10% neutral buffered formalin for 2 days. Bones were decalcified in a formic acid solution (Surgipath Decalcifier I; Leica Biosystems, Weltzar, Germany). The samples were then embedded in paraffin, sectioned (5 μm), and stained with H&E for examination by an ACVP board certified anatomic pathologist.
(§5) Hematology and biochemistry—Blood samples were collected via cardiac puncture. A complete blood count, including red blood cell, white blood cell, reticulocyte and platelet counts, with an automated differential leukocyte count, was performed using an IDEXX Procyte DX hematology analyzer (iDEXX, Westbrook. ME). Blood smears were prepared, stained with modified Wright's stain, examined in a blinded fashion by a board-certified veterinary clinical pathologist (T.S.), and imaged using a Nikon Eclipse TE2000-U fluorescent microscope equipped with a photometrics CoolSNAP HQ^2 camera (Nikon Corporation, Tokyo, Japan). The blood was also centrifuged (1,500×G) for 15 min to obtain the serum for biochemical analysis using a Beckman Coulter AU680 analyzer (Beckman Coulter, Brea, CA).

[3] = tested on: major organs (liver, spleen, heart, lungs, and kidneys); experiment: Necropsy, histopathology of major organs; type: in vivo, female BALB/c mice
Description: as §4

[4] = Hematology, complete blood count; type: in vivo, female BALB/c mice
Protocol: as §4, with “Necropsy—Seven- to 9-week-old female BALB/c mice (n=4/group) were treated weekly with PBS, DM1, DM1-peptide (0.75 mg/kg of drug content), or cisplatin (10 mg/kg) via tail-vein injection (150 μL). At” for “At”
as §5

Renca = experiment: Cell viability and cytotoxicity assay; type: cell-based, murine; settings: 72 h
Protocol: as §1

panel of BC cell lines = experiment: Cell viability and cytotoxicity assay, panel; type: cell-based
Protocol: as §1

Renca/GFP-Luc tumors = experiment: Kidney cancer treatment, orthotopic Renca/GFP-Luc syngeneic model; type: in vivo, female BALB/c mice; murine tumor cells
Protocol: Evaluation of DM1-Bdd for Kidney cancer treatment—Renca/GFP-Luc cells ([…]) in PBS (3 μL) were orthotopically implanted into the kidney capsules of 7- to 9-week-old female BALB/c mice (Jackson Laboratory, Bar Harbor, ME) as previously described. The tumor progression was confirmed by bioluminescence imaging. […] The animals were monitored for tumor growth inhibition and survival as described above. Additional mice were used for histopathological analysis (n=4/group).
as §2

kidneys = experiment: Nephrotoxicity studies, kidney histology and immunohistochemistry (NGAL and KIM-1); type: in vivo, BALB/c mice; settings: 3 days after i.v. administration; CIS 10 mg/kg, DM1-Bdd 0.75 mg/kg of drug content
Protocol: as §2, §3

[5] = In vitro drug release study, DM1-peptide; type: physicochemical; settings: GSH (1 mM), PBS
Protocol: In vitro drug release study—DM1-peptide conjugates (10 μM of drug content) were incubated in the presence of the reducing agent GSH (1 mM) in PBS buffer (800 μL). At different time intervals (0, 2, 4, 6, 8, 12, 24, and 48 h), a small amount of solution (100 μL) was taken out for HPLC analysis using C18 analytical column. The amount of DM1 active metabolites released overtime was measured (absorbance detected at 254 nm) and then quantified. The experiment was performed independently in triplicate. A similar experiment was performed to quantify the release of aldox. Aldox-peptide conjugates (100 μM of drug content) were incubated in PBS buffer (800 μL) with different pH (7.4 and 5.5) in a glass vial coated with silica to avoid non-specific adsorption on the reaction vessel surfaces. The amount of drug released over time was then measured as described above (absorbance detected at 480 nm). For accurate quantification, all the results were normalized compared to a DOX control incubated in similar conditions.

[6] = i.v., 0.75 mg/kg weekly for 3 weeks
[7] = one week after completing the treatment course
[8] = i.v. weekly for 3 weeks, DM1/DM1-Bdd 0.75 mg/kg, CIS 10 mg/kg
[9] = i.v., 0.75 mg/kg of drug content weekly for 3 weeks

COc1cc2cc(c1Cl)N(C)C(=O)C[C@H](OC(=O)[C@H](C)N(C)C(=O)CCS)[C@]1(C)O[C@H]1[C@H](C)[C@@H]1C[C@@](O)(NC(=O)O1)[C@H](OC)/C=C/C=C(\C)C2 [DM1, N2′-deacetyl-N2′-(3-mercapto-1-oxopropyl)-maytansine]
IC50 against UMUC-3 (UMUC-3): nanomolar (nM) range
potency against UMUC-3 compared to other chemotherapeutics (UMUC-3): more potent than cisplatin (CIS), doxorubicin (DOX) and mitomycin (MIT), and as effective as gemcitabine (GEM)
potency compared to DOX (UMUC-3): more potent than DOX
anti-tumor activity of i.v. DM1-Bdd versus i.v. DM1 [1]: similar
animal survival compared to i.t. MIT ([1]; i.v.): prolonged animal survival
survival after 100 days ([1]; i.v.): 0%
tumor growth inhibition compared to i.t. MIT ([1]; i.v.): more effective in inhibiting tumor growth
induction of KIM-1 and/or NGAL, 3 days ([2]; 3 days): continued induction of KIM-1 and/or NGAL
muscle injury (CK activity) (Serum biochemistry; DM1 0.75 mg/kg): induced muscle injury (CK activity)
hepatotoxicity: release of ALP, ALT, and AST (Serum biochemistry): increases in ALT and AST activities
urea nitrogen/creatinine ratio (Serum biochemistry): increases in ALT and AST activities and BUN/creatinine ratios
overall toxicity ([3]; i.v. weekly for 3 weeks): evidences of hepatic and renal injury
extramedullary hematopoiesis (EMH), splenic and hepatic [3, 6]: Increased splenic and hepatic EMH
inflammatory response [4, 6]: inflammatory response characterized by increased proportions of neutrophils, monocytes, and platelets
reticulocytes [4, 6]: induced reticulocytosis without apparent anemia
effectiveness against Renca cell line (Renca): effective
fold more potent than commonly used ITC drugs, including MIT, DOX and CIS (panel of BC cell lines): 100 fold
survival, i.v. or i.t. (Renca/GFP-Luc tumors; i.v. or i.t., 0.75 mg/kg weekly for 3 weeks): died
tumor in kidneys by histological examination (Renca/GFP-Luc tumors; [7]): large and accompanied with an infiltration of mononuclear cells

COc1cc2cc(c1Cl)N(C)C(=O)C[C@H](OC(=O)[C@H](C)N(C)C(=O)CCSSCCC(=O)NCCC(=O)N[C@H](CC(=O)O)C(=O)N[C@H](CC(=O)O)C(=O)NCCC(=O)N[C@H](CC(=O)O)C(=O)N[C@H](CC(=O)O)C(=O)NCCC(=O)N[C@H](CC(=O)O)C(=O)N[C@H](CC(=O)O)C(=O)NCCC(=O)N[C@H](CC(=O)O)C(=O)N[C@H](CC(=O)O)C(N)=O)[C@]1(C)O[C@H]1[C@H](C)[C@@H]1C[C@@](O)(NC(=O)O1)[C@H](OC)/C=C/C=C(\C)C2 [DM1-Bdd] ([Mpa](X1)[βAla][dD][dD][βAla][dD][dD][βAla][dD][dD][βAla][dD][dD]-NH2)
histologic examination of kidneys (kidneys): did not reveal any abnormalities in the kidneys
immunoreactivity of kidney sections for KIM-1 and NGAL (kidneys): no elevation of the immunoreactivity
treatment outcome of i.v. compared to i.t. administration ([1]; 0.75 mg/kg of drug content weekly for 3 weeks): better treatment outcome; also recorded: more effective
anti-tumor activity of i.v. DM1-Bdd versus i.v. DM1 [1]: similar
survival after 100 days ([1]; i.v.): 36%
tumor growth inhibition compared to i.t. MIT ([1]; i.v.): more effective in inhibiting tumor growth
animal survival compared to i.t. MIT ([1]; i.v., 0.75 mg/kg): prolonged animal survival; also recorded: improved the overall survival
animals for which treatment was curative ([1]; i.v., 210 days): 21%
gross and histologic evidence of tumors in survivor mice ([1]; i.v., 210 days): lacked gross and histologic evidence (using GFP and Ki67 immunostaining) of tumors
animals which lacked gross and histologic evidence of tumors ([1]; i.v., 210 days after tumor implantation): 3 animals
tumor size by histology ([1]; i.v., end of treatment): smaller
GFP-positive cells ([1]; i.v., immunohistochemistry): fewer GFP-positive cells
proportion of cells expressing Ki67 ([1]; i.v., immunohistochemistry): lower proportion of cells expressing the proliferation marker (Ki67)
drug release in a reducing environment [5]: enabling drug release in a reducing environment
time for KIM-1 and NGAL to return to basal levels ([2]; 0.75 mg/kg of drug content): ≤ 3 days
levels of KIM-1 and NGAL in the urine, 1 day ([2]; 0.75 mg/kg of drug content, 1 day): slightly increased
hepatotoxicity: release of ALP, ALT, and AST (Serum biochemistry): not hepatotoxic, with no significant alteration in the release of ALP, ALT, and AST
urea nitrogen/creatinine ratio (Serum biochemistry): normal
overall toxicity ([3]; i.v. weekly for 3 weeks): did not induce unwanted toxicity; also recorded: safe toxicity profile
histopathology of liver, spleen, heart, lungs, or kidneys [3, 8]: no morphological evidence of injury in the liver, spleen, heart, lungs, or kidneys
red blood cell, leukocyte, or platelet counts or morphologic features [4, 8]: did not affect the red blood cell, leukocyte, or platelet counts or morphologic features
survival benefit compared to the free drug (Renca/GFP-Luc tumors; i.v.): significant survival benefit compared to the free drug
bioluminescence signals in the majority of the animals (Renca/GFP-Luc tumors; [9]): decreased bioluminescence signals
survival after 160 days (Renca/GFP-Luc tumors; [9]): 50%
tumor progression (Renca/GFP-Luc tumors; [9]): inhibit tumor progression
tumor size (Renca/GFP-Luc tumors; [9]): reduced tumor size
animals lacking gross or histologic evidence of the tumor (Renca/GFP-Luc tumors; [7]): approximately 50%
tumor in kidneys by histological examination (Renca/GFP-Luc tumors; [7]): Minimal tumor was present
